# Values of other authors as cited in article PMC9851200, “Multiparameter phenotypic screening for endogenous TFEB and TFE3 translocation identifies novel chemical series modulating lysosome function” (Autophagy, 2022).
# Assays:
# Parameters in all cases: method as in original PKIS2 published data
# [1] = molecular target: T1, kinases (KINOMEscan panel) (Homo sapiens, UniProt P42681); conditions: kinase TXK; Published KINOMEscan; ref original PKIS2 published data; cited from earlier work
# T1 sequence (P42681 1-527): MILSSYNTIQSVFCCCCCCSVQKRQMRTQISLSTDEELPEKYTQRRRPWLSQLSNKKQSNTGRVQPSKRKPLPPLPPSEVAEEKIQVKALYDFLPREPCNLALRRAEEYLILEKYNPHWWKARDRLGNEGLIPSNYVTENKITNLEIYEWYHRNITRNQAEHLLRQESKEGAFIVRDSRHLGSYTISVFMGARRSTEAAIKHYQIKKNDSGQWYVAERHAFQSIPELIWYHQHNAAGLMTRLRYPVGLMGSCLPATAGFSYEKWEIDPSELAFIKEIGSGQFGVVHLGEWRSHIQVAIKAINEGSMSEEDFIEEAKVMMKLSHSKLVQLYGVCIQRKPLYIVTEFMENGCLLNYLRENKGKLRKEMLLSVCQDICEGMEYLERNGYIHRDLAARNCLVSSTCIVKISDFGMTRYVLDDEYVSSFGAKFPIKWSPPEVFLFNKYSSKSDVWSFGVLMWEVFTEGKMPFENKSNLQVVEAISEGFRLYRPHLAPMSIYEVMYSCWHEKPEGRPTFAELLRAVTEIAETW
# [2] = molecular target: kinases (KINOMEscan panel) (Homo sapiens, UniProt Q9HAZ1); conditions: kinase CLK4; Published KINOMEscan; ref original PKIS2 published data; cited from earlier work
# kinases (KINOMEscan panel) (Homo sapiens, UniProt Q9HAZ1), sequence (Q9HAZ1 whole entry): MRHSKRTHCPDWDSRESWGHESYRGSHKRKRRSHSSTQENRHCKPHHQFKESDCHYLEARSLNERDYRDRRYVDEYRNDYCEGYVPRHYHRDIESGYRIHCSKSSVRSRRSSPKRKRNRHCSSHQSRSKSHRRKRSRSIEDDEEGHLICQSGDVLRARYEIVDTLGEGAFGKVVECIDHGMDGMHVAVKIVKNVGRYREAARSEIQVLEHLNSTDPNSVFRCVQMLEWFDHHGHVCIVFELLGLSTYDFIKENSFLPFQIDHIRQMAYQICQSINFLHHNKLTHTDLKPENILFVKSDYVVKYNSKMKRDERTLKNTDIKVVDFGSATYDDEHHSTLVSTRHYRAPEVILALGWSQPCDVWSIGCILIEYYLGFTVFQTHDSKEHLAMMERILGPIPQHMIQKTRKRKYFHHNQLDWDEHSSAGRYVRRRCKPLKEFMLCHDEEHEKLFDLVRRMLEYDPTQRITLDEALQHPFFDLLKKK
# [3] = molecular target: T2, kinases (KINOMEscan panel) (Homo sapiens, UniProt P29322); conditions: kinase EPHA8; Published KINOMEscan; ref original PKIS2 published data; cited from earlier work
# T2 sequence (P29322 28-1005): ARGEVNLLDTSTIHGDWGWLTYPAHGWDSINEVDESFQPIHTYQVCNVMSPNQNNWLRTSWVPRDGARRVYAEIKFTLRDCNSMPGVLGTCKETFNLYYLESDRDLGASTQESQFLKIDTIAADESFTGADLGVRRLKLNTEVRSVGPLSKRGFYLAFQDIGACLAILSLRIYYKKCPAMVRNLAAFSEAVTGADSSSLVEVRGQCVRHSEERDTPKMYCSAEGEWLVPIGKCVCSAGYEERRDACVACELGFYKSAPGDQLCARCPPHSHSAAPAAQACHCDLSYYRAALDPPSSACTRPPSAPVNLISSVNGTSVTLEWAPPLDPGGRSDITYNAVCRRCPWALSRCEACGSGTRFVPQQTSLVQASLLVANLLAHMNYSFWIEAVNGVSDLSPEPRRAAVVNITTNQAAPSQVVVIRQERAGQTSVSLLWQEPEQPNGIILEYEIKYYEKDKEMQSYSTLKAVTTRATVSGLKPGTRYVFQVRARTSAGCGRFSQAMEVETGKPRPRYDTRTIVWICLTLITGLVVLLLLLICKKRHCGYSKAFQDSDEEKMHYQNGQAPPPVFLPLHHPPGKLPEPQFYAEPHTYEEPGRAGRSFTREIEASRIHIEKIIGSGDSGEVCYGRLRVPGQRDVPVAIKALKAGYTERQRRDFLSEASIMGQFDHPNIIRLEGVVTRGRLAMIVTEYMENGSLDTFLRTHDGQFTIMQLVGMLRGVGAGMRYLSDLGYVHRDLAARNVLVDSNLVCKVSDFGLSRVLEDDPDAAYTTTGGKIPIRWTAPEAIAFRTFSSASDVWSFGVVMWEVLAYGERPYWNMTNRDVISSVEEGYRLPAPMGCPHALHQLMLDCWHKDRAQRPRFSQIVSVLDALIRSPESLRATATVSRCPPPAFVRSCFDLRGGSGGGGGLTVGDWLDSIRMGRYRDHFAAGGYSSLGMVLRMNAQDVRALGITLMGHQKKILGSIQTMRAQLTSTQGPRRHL
# [4] = molecular target: T3, kinases (KINOMEscan panel) (Homo sapiens, UniProt Q9UL54); conditions: kinase TAOK2; Published KINOMEscan; ref original PKIS2 published data; cited from earlier work
# T3 sequence (Q9UL54 1-1235): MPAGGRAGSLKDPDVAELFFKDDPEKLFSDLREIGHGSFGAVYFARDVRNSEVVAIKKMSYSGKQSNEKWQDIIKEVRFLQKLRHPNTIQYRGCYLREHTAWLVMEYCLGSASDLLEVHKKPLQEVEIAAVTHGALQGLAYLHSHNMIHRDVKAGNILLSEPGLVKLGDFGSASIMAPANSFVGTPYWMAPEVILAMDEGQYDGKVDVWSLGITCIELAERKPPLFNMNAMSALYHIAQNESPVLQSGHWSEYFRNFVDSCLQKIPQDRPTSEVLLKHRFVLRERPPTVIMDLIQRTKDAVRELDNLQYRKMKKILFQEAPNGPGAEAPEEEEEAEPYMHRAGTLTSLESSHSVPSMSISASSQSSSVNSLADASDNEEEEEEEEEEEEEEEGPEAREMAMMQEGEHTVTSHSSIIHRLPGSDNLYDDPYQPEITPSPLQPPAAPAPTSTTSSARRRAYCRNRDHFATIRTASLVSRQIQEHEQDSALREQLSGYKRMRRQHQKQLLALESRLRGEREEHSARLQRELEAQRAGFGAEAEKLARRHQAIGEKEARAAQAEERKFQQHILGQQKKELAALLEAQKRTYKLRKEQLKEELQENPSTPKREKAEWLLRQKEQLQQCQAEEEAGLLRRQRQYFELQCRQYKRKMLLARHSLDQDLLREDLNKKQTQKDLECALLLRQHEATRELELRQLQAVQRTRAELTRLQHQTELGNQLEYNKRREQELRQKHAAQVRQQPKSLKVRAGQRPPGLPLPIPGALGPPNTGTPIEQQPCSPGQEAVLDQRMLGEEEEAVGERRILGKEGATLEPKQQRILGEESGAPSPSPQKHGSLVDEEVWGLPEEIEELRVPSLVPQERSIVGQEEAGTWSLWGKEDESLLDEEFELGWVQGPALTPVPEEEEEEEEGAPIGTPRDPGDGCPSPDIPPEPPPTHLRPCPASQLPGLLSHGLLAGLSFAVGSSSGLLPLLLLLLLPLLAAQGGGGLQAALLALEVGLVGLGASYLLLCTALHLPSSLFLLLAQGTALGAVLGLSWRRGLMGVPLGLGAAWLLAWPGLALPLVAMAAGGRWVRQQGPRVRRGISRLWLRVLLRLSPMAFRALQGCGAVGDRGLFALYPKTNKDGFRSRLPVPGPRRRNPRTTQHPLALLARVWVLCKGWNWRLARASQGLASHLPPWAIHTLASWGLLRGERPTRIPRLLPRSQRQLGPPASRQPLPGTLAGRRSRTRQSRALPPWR
smiles,measurement,setting,value
Cc1cccc(-c2nc(Nc3ccncc3)c3ccccc3n2)n1 [NK215],KINOMEscan TXK,[1],11
same,KINOMEscan CLK4,[2],0
same,KINOMEscan EPHA8,[3],7
same,KINOMEscan TAOK2,[4],17
